These results are taken from paper PMC11862990, “Utility of 6-aza-2-thiothymine in the synthesis of novel [1,2,4]triazolo[4,3-b][1,2,4]triazin-7-one derivatives: synthesis, structure elucidation, molecular docking and in vitro anti-lung cancer activity” (RSC Advances, 2025).

By IC50 is commonly meant the midpoint of a concentration-inhibition curve. Higher therefore signals lower potency.

The subject of one experiment is PC3 (prostate cell line). Nature of the experiment: MTT cytotoxicity assay, PC3. It is filed as cell-based. Conditions: Homo sapiens, read-out: (%) Mortality PC3.
In another experiment the test system is A549 (lung carcinoma). Nature of the experiment: MTT cytotoxicity assay, A549. The format is cell-based. As to conditions: Homo sapiens; for cytotoxicity at 100 µg/mL: read-out: (%) Mortality A549; for IC50: 48 hour incubation. For orientation: Tetrazolium dyes change colour on reduction, which living cells bring about.
The subject of experiment [1] is PACA2 (pancreatic cancer cell line). Nature of the experiment: MTT cytotoxicity assay, PACA2. The format is cell-based. As to conditions: Homo sapiens; for cytotoxicity at 100 µg/mL: read-out: (%) Mortality PACA2.
Protocol: (§1) Using specific human cancer cell lines, the anti-proliferative effectiveness of compounds 7a–j was evaluated in an in vitro assay. The anti-cancer activity of these compounds (7a–j) on various cancer cell lines, including PC3 (Prostate cell line), A549 (Lung carcinoma), PACA2 (Pancreatic cancer cell line) and BJ1 (normal skin fibroblast), was investigated in this study using the 3-(4,5-dimethylthiazol-2-yl)-2,5-diphenyltetrazolium bromide (MTT) test. Doxorubicin (Dox) was the standard medication used as a positive control.
(§2) In the initial screening trial, a single dosage concentration of 100 μg ml^−1 was applied for 48 hours. The cytotoxicity of the treated cells was determined by calculating the cell death percentage (% mortality) as a percentage of untreated cells (Table 2).
(§3) All incubations were performed at 37 °C in a 5% CO2 incubator with a 95% humidified environment (Sheldon, TC2323; Cornelius, OR, USA). 96-well micro titer polypropylene plates were seeded with cells at a density of 10^4 cells per well in complete DMEM media, and the cells were allowed to adhere for 24 hours. After the media was aspirated, the tested compounds were added to the cells in a single dose of 100 μg ml^−1 in DMSO. Each well received 40 μl of MTT salt (2.5 g ml^−1) following a 48 hour incubation period. 200 μl of 10% sodium dodecyl sulfate (SDS) was added to each well after the reaction ended, and any formazan crystals that could have been produced were dissolved by two hours of incubator heating to 37 °C. The amount of formazan product was measured at 595 nm using a microplate reader (Bio-Rad Laboratories, model 3350, California, USA) with a reference wavelength of 690 nm, serving as a backdrop. Rather than the drugs under investigation, the medium was applied to the untreated cells (negative control). The examined compounds were dissolved in dimethylsulfoxide (DMSO), and the final concentration in the cells was less than 0.2%. For each compound and the control, the solvent concentration was the same.
For experiment [2], the system named is BCL-2 gene expression in lung cancer cell lines. Nature of the experiment: qRT-PCR gene expression, BCL-2. As to conditions: treated lung cancer cell lines vs negative control; descending order 7g, Dox, 7a. The format is cell-based, human. Here is the method:
The RNeasy Mini Kit (Qiagen, Hilden, Germany), augmented with a DNaseI (Qiagen) digestion step, was employed to extract total RNA from lung cancer cell lines following the manufacturer's procedure. The isolated total RNA was treated with one unit of RQ1 RNAse-free DNAse (Invitrogen, Germany) to eliminate DNA remnants, re-suspended in DEPC-treated water, and quantified photometrically at 260 nm. The purity of total RNA was evaluated using the 260/280 nm ratio, which ranged from 1.8 to 2.1.[27]
Furthermore, integrity was confirmed using ethidium bromide-stained examination of 28S and 18S bands via formaldehyde-containing agarose gel electrophoresis. Aliquots were utilized immediately for reverse transcription (RT); otherwise, they were preserved at −80 °C.
The poly(A) + RNA extracted from the lung cancer cell lines was reverse transcribed into the cDNA in a total amount of 20 μl utilizing the Revert Aid TM First Strand cDNA Synthesis Kit (Fermentas, Germany). A total of 5 μg of RNA was utilized with a master mix. The master mix comprised 50 mM MgCl2, 10× RT buffer (50 mM KCl; 10 mM Tris–HCl; pH 8.3), 10 mM of each dNTP, 50 μM oligo-dT primer, 20 IU ribonuclease inhibitor (50 kDa recombinant enzyme to suppress RNase activity), and 50 IU MuLV reverse transcriptase. Each sample mixture was centrifuged for 30 seconds at 1000 g and thereafter transferred to the thermocycler. The RT reaction was conducted at 25 °C for 10 minutes, subsequently at 42 °C for 1 hour, and concluded with a denaturation phase at 99 °C for 5 minutes. Subsequently, the reaction tubes containing RT-prepared samples were rapidly chilled in an ice chamber prior to cDNA amplification via the quantitative real-time polymerase chain reaction (qRT-PCR).
The cDNA copy number of lung cancer cell lines was determined using the StepOne™ Real-Time PCR System from Applied Biosystems (Thermo Fisher Scientific, Waltham, MA, USA). […]
The reaction protocol was divided into three stages. […] The relative quantification of the target gene to the reference gene was assessed using the 2^−ΔΔCT method.[29–31]
(In general: Quantitative PCR measures a nucleic acid by following its amplification.)

Experiment [3] has as its system lung cancer cell lines (A549). As to the kind of experiment: DNA fragmentation assay (diphenylamine reaction). The format is cell-based, human. As to conditions: for DNA fragmentation Change: change vs negative control; for DNA fragmentation% (M ± SEM): negative control 12.54 ± 0.45. Here is the method: The DNA fragmentation assay in lung cancer cell lines was performed in accordance with the protocol established by Yawata (1998)[34] with some modifications. […] The low-molecular-weight genomic DNA was extracted as described in Yawata (1998).[34] Approximately 1 × 10^6 cells of each treatment were plated. All the cells (including floating cells) were harvested and washed with Dulbecco's phosphate buffered saline. The cancer cells were lysed with the lysis buffer containing 10 mM Tris (pH 7.4), 150 mM NaCl, 5 mM ethylenediaminetetraacetic acid (EDTA), and 0.5% Triton X-100 for 30 min on ice. Lysates were vortexed and cleared by centrifugation at 10 000 g for 20 min. Fragmented DNA in the supernatant was extracted with an equal volume of a neutral phenol : chloroform : isoamyl alcohol mixture (25 : 24 : 1) and analyzed electrophoretically on 2% agarose gels containing 0.1 μg ml^−1 ethidium bromide.
The lung cancer cell lines (A549) were used to determine the quantitative profile of the DNA fragmentation. […] The cancer cells were lysed in 0.5 ml of lysis buffer containing 10 mM Tris–HCl (pH 8), 1 mM EDTA, and 0.2% Triton X-100 and centrifuged at 10 000 rpm (Eppendorf) for 20 min at 4 °C. The pellets were re-suspended in 0.5 ml of lysis buffer. To the pellets (P) and the supernatants (S), 0.5 ml of 25% tri-chloroacetic acid (TCA) was added and incubated at 4 °C for 24 h. The cells were then centrifuged for 20 min at 10 000 rpm (Eppendorf) at 4 °C and the pellets were suspended in […] of 5% TCA, followed by incubation at 83 °C for 20 min. Subsequently, to each cell sample, […] of diphenylamine (DPA) solution [150 mg DPA in 10 ml glacial acetic acid, […] of sulfuric acid and […] acetaldehyde (16 mg ml^−1)] was added and incubated at room temperature for 24 h (Gibb et al.,[35] 1997). The proportion of the fragmented DNA was calculated from the absorbance values at 600 nm wavelength using the formula:% fragmented DNA = [OD(S)/[OD(S) + OD(P)]] × 100(OD: optical density, S: supernatants, P: pellets).

The mark [4] stands for this setting: A549, 100 μg ml^−1, 48 hours, MTT.
[5] abbreviates: PaCa-2, 100 μg ml^−1, 48 hours, MTT.

“And” between values parts separate entries of the source, which are not always exact repeats. Equal entries are not always repeated. Where two headings read alike, the source gives them in different places.

Protocol for A549 (lung carcinoma): as §1, §2, §3
Protocol for PC3 (prostate cell line): as §1, §2, §3

For `Cc1nn2c(C)nn(-c3ccc([N+](=O)[O-])cc3)c2nc1=O` [Compound 7a, 3,6-Dimethyl-1-(4-nitrophenyl)-[1,2,4]triazolo[4,3-b][1,2,4]triazin-7(1H)-one], the cytotoxicity at 100 µg/mL with PC3 (prostate cell line) (100 μg ml^−1, 48 hours, MTT) was 28.2 ± 0.25%; in the experiment with A549 (lung carcinoma) (setting [4]), 80.4 ± 0.66%; in experiment [1] (setting [5]), 20.4 ± 0.11%. In the experiment with A549 (lung carcinoma) (A549, MTT), this molecule gave an IC50 of 36.6 µM. Further, the “BCL-2 (anti-apoptotic gene) expression level” value in experiment [2] is recorded as “diminished”. In addition, the “DNA fragmentation Inhibition%” value in experiment [3] was found to be 27.78%. The “DNA fragmentation Change” value in experiment [3] worked out at 20.24. Further, in experiment [3], the “DNA fragmentation% (M ± SEM)” value was 32.78 ± 1.35% and 32.78 ± 1.35^a %.
Regarding `COc1ccc(-c2nn(-c3ccccc3)c3nc(=O)c(C)nn23)cc1` [Compound 7g, 3-(4-Methoxyphenyl)-6-methyl-1-phenyl-[1,2,4]triazolo[4,3-b][1,2,4]triazin-7(1H)-one], in the experiment on PC3 (prostate cell line) (100 μg ml^−1, 48 hours, MTT), the cytotoxicity at 100 µg/mL stood at 14.6 ± 0.92%. Moreover, the cytotoxicity at 100 µg/mL in the experiment on A549 (lung carcinoma) (setting [4]) worked out at 82.3 ± 0.82%. The same molecule had an IC50 with A549 (lung carcinoma) (A549, MTT) of 40.1 µM. Moreover, the cytotoxicity at 100 µg/mL in experiment [1] (setting [5]) is 13.4 ± 1.15%. Besides, the “BCL-2 (anti-apoptotic gene) expression level” value in experiment [2] is “diminished”. Also, in experiment [3], the “DNA fragmentation Inhibition%” value stood at 17.74%; the “DNA fragmentation Change” value is on record as 13.03; the “DNA fragmentation% (M ± SEM)” value was 25.57 ± 0.94% and 25.57 ± 0.94^b %.
Regarding `COc1cccc2c1C(=O)c1c(O)c3c(c(O)c1C2=O)C[C@@](O)(C(=O)CO)C[C@@H]3O[C@H]1C[C@H](N)[C@H](O)[C@H](C)O1` [Dox, Doxorubicin, reference compound], the cytotoxicity at 100 µg/mL in the experiment with PC3 (prostate cell line) (48 h) is 100%; with A549 (lung carcinoma) (A549, 48 h), 100%; in experiment [1] (PaCa-2, 48 h), 100%. The IC50 in the experiment on A549 (lung carcinoma) (A549, MTT) turned out to be 43.8 µM; in experiment [1] (PaCa-2, MTT, 48 hour incubation), 52.1 µM. The “BCL-2 (anti-apoptotic gene) expression level” value in experiment [2] was “diminished”. Moreover, the “DNA fragmentation Inhibition%” value in experiment [3] is listed as 19.69%. For the same molecule, the “DNA fragmentation Change” value in experiment [3] stood at 15.84.
